“Also recorded” adds a separate entry of the source.
Assays:
[1] = biological target: T1, μOR (Homo sapiens (Human), UniProt P35372); assay: cell-based; type: cell-based
[2] = biological target: T2, μOR β-arrestin2 recruitment (Homo sapiens (Human), UniProt P35372); assay: β-Arrestin recruitment, PathHunter enzyme complementation assay (DiscoveRx OPRM1 CHO-K1); type: cell-based
[3] = biological target: humanDOR (Homo sapiens (Human), UniProt P41143); assay: Receptor binding, [3H]diprenorphine
[4] = biological target: hKOR (Homo sapiens (Human), UniProt P41145); assay: Receptor binding, [3H]diprenorphine; details: hKOR [3H]dyprenorphine Ki
hKOR, sequence (P41145 whole entry): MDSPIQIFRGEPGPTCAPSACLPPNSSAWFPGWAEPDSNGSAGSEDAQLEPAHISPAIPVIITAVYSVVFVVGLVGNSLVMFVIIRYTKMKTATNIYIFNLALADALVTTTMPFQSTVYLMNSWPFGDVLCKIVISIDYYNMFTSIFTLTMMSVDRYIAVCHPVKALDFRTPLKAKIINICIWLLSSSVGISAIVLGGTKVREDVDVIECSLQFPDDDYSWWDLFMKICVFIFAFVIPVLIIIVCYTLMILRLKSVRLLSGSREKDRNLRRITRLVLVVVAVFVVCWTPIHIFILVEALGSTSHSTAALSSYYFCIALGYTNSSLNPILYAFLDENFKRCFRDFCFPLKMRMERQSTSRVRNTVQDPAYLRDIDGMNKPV

[5] = biological target: hMOR + Gqi5 (Homo sapiens (Human), UniProt P35372); assay: IP accumulation assay; type: cell-based; details: % morphine
[6] = biological target: T2, μOR β-arrestin2 recruitment; assay: β-Arrestin2 recruitment without GRK2 co-expression (BRET); type: cell-based
[7] = biological target: human μOR β-arrestin2 recruitment + GRK2 (Homo sapiens (Human), UniProt P35372); assay: β-Arrestin2 recruitment with GRK2 co-expression (BRET); type: cell-based
[8] = tested on: 316 other GPCRs; assay: PRESTO-Tango GPCRome β-arrestin recruitment counter-screen; type: cell-based; details: 10 μM screen, hits re-tested in full dose-response
Text: Potential positive receptor hits were defined as those that increase the relative luminescence value by two fold. […] A number of false positive hits were discounted by this approach.

[9] = biological target: T1, μOR; assay: Calcium release (FLIPR); type: cell-based
Protocol: Calcium release was measured using a FLIPR^TETRA fluorescence imaging plate reader (Molecular Devices). Calcium release experiments were run in parallel to Gi/o Glosensor experiments with the same HEKT cells transfected with μOR, except cells for FLIPR were plated in poly-lysine coated 384-well black clear bottom cell culture plates. […] Dye was incubated for 1 hour at 37° C. Afterwards, cells were equilibrated to room temperature, and fluorescence in each well was read for the initial 10 seconds to establish a baseline. Afterwards, 10 μL of drug (3×) was added per well and the maximum-fold increase in fluorescence was determined as fold-over-baseline. Drug solutions used for the FLIPR assay were exactly the same as used for Gi/o Glosensor experiments. To activate endogenous Gq-coupled receptors as a positive control for calcium release, TFLLR-NH2 (10 μM, PAR-1 selective agonist) was used.

[10] = biological target: T1, μOR; assay: Receptor internalization (PathHunter GPCR internalization, U2OS cells); type: cell-based
[11] = tested on: C57BL/6J mice; assay: Hot-plate analgesia assay; type: in vivo; details: mouse
[12] = tested on: C57BL/6J mice; assay: Tail-flick assay; type: in vivo; details: mouse
[13] = tested on: Oprm1−/− and wild-type C57Bl/6J mice; assay: Hot-plate: affective/reflexive subcategorization and μOR knockout mice; type: in vivo, mouse
[14] = tested on: mice; assay: Formalin injection assay; type: in vivo; details: mouse
[15] = tested on: mice; assay: Conditioned place preference; type: in vivo; details: mouse
Protocol: On day 1 (preconditioning day), mice were placed in the central chamber and allowed to explore freely for 30 minutes. Time spent in each compartment was used to estimate baseline chamber preferences and mice showing specific chamber bias more than 70% were not studied further. On days 2-9 (conditioning days) mice were injected with either vehicle or drug and paired with either the white mesh or the black rod chambers. All mice received vehicle on days 2, 4, 6, 8 and drug on days 3, 5, 7, 9. On day 10 (test day), mice were again placed in the central chamber as on day 1 and allowed to explore freely for 30 minutes. Time spent in each chamber was expressed as percentage preference.

[16] = Pharmacokinetics: serum and brain concentrations; type: in vivo; details: mouse
Protocol: Studies were performed by the Preclinical Therapeutics Core and the Drug Studies Unit at the University of California San Francisco. […] All studies were performed with approved mouse protocols from the institutional animal care and use committees.

[17] = tested on: μOR Gi/o versus β-arrestin signaling; assay: Ligand bias calculation (operational model)
[18] = tested on: mice; assay: Catalepsy bar test; details: mouse
[19] = biological target: δOR (Homo sapiens (Human), UniProt P41143); assay: Gi/o Glosensor assay
[20] = biological target: nociceptin receptor (Homo sapiens (Human), UniProt P41146); assay: Gi/o Glosensor assay
[21] = tested on: mice; assay: Open field locomotor response; details: mouse
[22] = biological target: κOR (Homo sapiens (Human), UniProt P41145); assay: Gi/o Glosensor assay (agonist and antagonist mode)
[23] = tested on: mice; assay: Accumulated fecal boli quantification (constipation); details: mouse
[24] = biological target: T1, μOR; assay: biochemical; type: binding
[25] = biological target: T1, μOR; details: no Ki given

T1 sequence (P35372 whole entry): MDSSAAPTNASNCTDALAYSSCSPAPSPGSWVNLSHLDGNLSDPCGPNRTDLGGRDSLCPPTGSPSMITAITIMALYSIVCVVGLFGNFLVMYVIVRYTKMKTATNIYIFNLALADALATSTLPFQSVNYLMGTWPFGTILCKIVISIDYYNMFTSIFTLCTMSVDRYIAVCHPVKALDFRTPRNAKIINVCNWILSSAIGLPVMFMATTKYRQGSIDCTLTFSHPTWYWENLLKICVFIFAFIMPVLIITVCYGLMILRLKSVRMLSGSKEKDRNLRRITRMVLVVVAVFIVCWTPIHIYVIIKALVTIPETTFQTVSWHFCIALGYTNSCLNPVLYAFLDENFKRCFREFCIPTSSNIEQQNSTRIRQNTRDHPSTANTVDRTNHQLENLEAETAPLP
humanDOR, sequence (P41143 whole entry): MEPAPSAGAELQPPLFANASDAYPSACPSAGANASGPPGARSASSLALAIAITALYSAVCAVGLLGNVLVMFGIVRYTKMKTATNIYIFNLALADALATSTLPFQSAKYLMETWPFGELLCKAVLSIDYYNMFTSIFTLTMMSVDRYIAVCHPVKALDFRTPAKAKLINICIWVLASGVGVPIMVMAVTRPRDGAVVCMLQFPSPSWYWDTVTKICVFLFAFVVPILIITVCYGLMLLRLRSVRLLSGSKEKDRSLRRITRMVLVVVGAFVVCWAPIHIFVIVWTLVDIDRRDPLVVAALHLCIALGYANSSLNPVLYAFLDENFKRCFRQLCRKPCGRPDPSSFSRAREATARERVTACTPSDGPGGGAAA

For `C[C@@H](Cc1ccsc1)NC(=O)NC[C@H](Cc1ccc(O)cc1)N(C)C` [PZM21, 1-[(S)-2-(Dimethylamino)-3-(4-hydroxyphenyl)propyl]-3-((S)-1-(thiophen-3-yl)propan-2-yl)urea], the “Gi/o activation / μOR agonist activity” value [1] was “robust μOR agonist activity”, the “effect on cAMP levels with pertussis toxin” value [1] was “eliminated by pertussis toxin” and the “β-arrestin2 recruitment in PathHunter assay” value [2] was “undetectable β-arrestin2 recruitment; also recorded: minimal recruitment of β-arrestin2; also recorded: no detectable 3-arrestin2 recruitment”. For the same compound, the Ki [3] was 470 ± 98 nM, the Ki [4] was 33 ± 5.6 nM and the “hMOR + Gqi5 IP accumulation assay efficacy a” value [5] was “a: 73%”. For the same compound, the “β-arrestin2 recruitment in the absence of GRK2” value [6] was “no β-arrestin2 recruitment”, the “arrestin recruitment with over-expressed GRK2” value [7] was “weak arrestin recruitment efficacy compared to DAMGO and even to morphine; also recorded: we observe arrestin recruitment” and the “agonism against 316 other GPCRs” value [8] was “no potent activity was confirmed with a full dose-response experiment”. The “calcium release” value [9] was “no activity was observed in a calcium release assay”, the “μOR internalization” value [10] was “minimal level of μOR internalization compared to DAMGO and morphine” and the “hot-plate analgesia” value ([11]; s.c.) was “dose-dependent analgesia”. For the same compound, the “hot-plate percent maximal possible effect (% MPE)” value ([11]; 15 minutes after the highest dose tested) was 87%, the “tail-flick analgesia” value [12] was “no activity in a tail flick assay; also recorded: no analgesic effect” and the “analgesia in μOR knockout mice” value ([13]; hot-plate) was “genetic knockout of the μOR completely ablates the observed analgesic response”. The “affective versus reflexive component of pain” value ([13]; mouse hot-plate) was “only modulates the affective component of pain; also recorded: solely confers analgesia to the affective component of pain”, the “formalin injection nociception” value [14] was “active in a formalin injection nociception assay” and the “conditioned place preference” value [15] was “does not induce a conditioned place preference response”. The “blood brain barrier penetration” value [16] was “substantial fraction of PZM21 crosses the blood brain barrier”, the “signaling bias” value [17] was “undistinguishable from TRV130; also recorded: substantially exceeded that of herkinorin” and the “cataleptic effect” value [18] was “does not induce cataleptic behavior; also recorded: does not reflect a cataleptic effect”. The Emax ([19]; read-out: Gi/o (Glosensor) Emax (%) δOR) was 78%, the “weaker δOR agonist than μOR agonist” value ([19]; selectivity) was 500 fold and the “nociceptin receptor agonist activity” value [20] was “no detectable KOR or nociceptin receptor agonist activity”. The “open field locomotion” value [21] was “does not induce open field locomotion; also recorded: no apparent effect on locomotion versus vehicle”, the “activity at KOR (antagonist mode, words)” value [22] was “antagonist at KOR” and the “κOR agonist activity” value [22] was “no detectable KOR or nociceptin receptor agonist activity; also recorded: lack of agonist activity”. The “constipation effect / defecation” value [23] was “reduced constipatory effects as compared to morphine; also recorded: substantially less than morphine”.

`CCN1CCC[C@@H](NC(=O)NCCc2ccc(OC(C)C)cc2)C1` [compound 6] showed a Ki [24] of 10000 nM.

For `O=C(Cc1cn2ccccc2n1)NCC1(c2ccccc2)CCC1` [compound 9], the “μOR binding, given as <50%” value [25] was under 50%.

— US10702498B2 (priority 2015, dated 2020)
